{
  "source": "patent US20060275520A1",
  "about": "“White peony extract for improving the duration and quality of sleep” (Access Business Group International LLC, priority 2005, published 2006)",
  "target": "GABA-A receptors",
  "assay": "GABA-A Agonist binding assay (NovaScreen), [3H]-GABA displacement",
  "parameters": "species or system bovine",
  "conditions": "converted from μg/ml; read-out: IC50 for paeoniflorin converted to molarity",
  "method": "These GABA-A Agonist assays were conducted by NovaScreen Biosciences Corporation (Hanover, Md.) and are described in Falch E., et al., 1986. […] 47(3): 898-903 and Enna S. J., et al., 1977.\n(§1) In particular, the GABA-A Agonist binding assays use bovine cerebellar membranes as the source of GABA-A receptors. GABA-A, radio labeled with tritium (^3H), is used as both the reference compound and positive control.\nThe bovine cerebellar membranes are exposed to both [^3H]-GABA and extracts of the desired test substance. In this instance, the bovine cerebellar membranes were exposed to: six extracts of white peony root at concentrations of 0.01, 0.03, 0.1, 0.3, 1, 3, and 10 μg/ml. The GABA-A Agonist assay measures how much radio labeled GABA-A binds to the GABA-A receptors present in the bovine cerebellar membranes.\nThe results of the GABA-A Agonist binding assays are shown in FIGS. 19-24 and are expressed below in Table I as IC50 in μg/ml.\nas §1, with “control. The bovine cerebellar membranes are exposed to both [^3H]-GABA and extracts of the desired test substance. […]” for “control.”",
  "data": [
    {"smiles": "C[C@@]12C[C@@]3(O)O[C@@H](O1)[C@]1(COC(=O)c4ccccc4)[C@H]3C[C@@]12O[C@@H]1O[C@H](CO)[C@@H](O)[C@H](O)[C@H]1O", "note": "[paeoniflorin]", "values": [
      {"measurement": "IC50", "value": "~625", "unit": "nM"}
    ]}
  ]
}
